Source: publication PMC6511888, “Synthesis, Biological Evaluation, and Molecular Modeling Studies of New Thiadiazole Derivatives as Potent P2X7 Receptor Inhibitors” (Frontiers in Chemistry, 2019)

Legend:
Type in all cases: cell-based
P2Y2R = molecular target: T1, P2Y2R (Mus musculus, UniProt P35383); experiment: 2-S-UTP-activated [Ca2+]i shifts in mouse peritoneal macrophages; details: 1 μM
T1 construct: endogenous in cells; host or cells: mouse peritoneal macrophages
Procedure: (§1) Mouse peritoneal macrophages, PC12 cells, J774 cells, and HEPG2 cells were analyzed by fluorescence microscopy to measure the intracellular Ca^2+ concentrations ([Ca^2+]i). Cells were incubated with 2 μM Fura-2-AM (Molecular Probes) for 30 min, and the [Ca^2+]i mobilization was measured in the F340/F380 ratios with a FlexStation 3 multimode microplate reader (Molecular Devices). Cells were plated in translucent 96-well plates (BD Falcon) for 15 min and then washed and incubated in a saline solution with 150 NaCl, 5 KCl, 1 MgCl2, 1 CaCl2, and 10 HEPES (pH 7.4) for 30 min before measurements of [Ca^2+]i. The Ca^2+ influx was induced by stimulating cells with P2 receptor agonists. P2 receptor antagonists were added 10 min before P2 receptor agonist addition. […] Ionomycin was considered a positive control, and the other recordings were normalized in relation to the AUC.

P2X4R = molecular target: T2, P2X4R (Rattus norvegicus, UniProt P51577); experiment: ATP-induced [Ca2+]i shifts potentiated by ivermectin in NR8383 alveolar macrophage cell line; details: 1 μM; NR8383 cells
T2 construct: endogenous in cells; host or cells: NR8383 rat alveolar macrophage cell line
T2 sequence (P51577 1-388): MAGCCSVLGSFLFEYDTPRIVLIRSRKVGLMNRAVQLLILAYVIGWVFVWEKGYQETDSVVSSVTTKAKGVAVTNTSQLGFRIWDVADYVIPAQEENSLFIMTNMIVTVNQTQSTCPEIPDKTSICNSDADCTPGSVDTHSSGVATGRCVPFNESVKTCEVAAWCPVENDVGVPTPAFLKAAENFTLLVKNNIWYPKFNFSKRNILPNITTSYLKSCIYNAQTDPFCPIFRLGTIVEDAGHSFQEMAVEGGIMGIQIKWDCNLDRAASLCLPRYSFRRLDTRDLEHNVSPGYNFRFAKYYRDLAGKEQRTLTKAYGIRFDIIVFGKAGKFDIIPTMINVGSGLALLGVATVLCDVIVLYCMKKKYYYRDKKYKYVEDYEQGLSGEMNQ

P2Y1R = molecular target: T3, P2Y1R (Mus musculus, UniProt P49650); experiment: ADP-induced [Ca2+]i shifts in mouse peritoneal macrophages; details: 1 μM
T3 construct: endogenous in cells; host or cells: mouse peritoneal macrophages
Procedure: as §1

P2X1R = molecular target: T4, P2X1R (Mus musculus, UniProt P51576); experiment: β,γ-meATP-induced intracellular Ca2+ mobilization in J774 cells; details: 10 μM
T4 construct: endogenous in cells; host or cells: J774 cells
T4 sequence (P51576 1-399): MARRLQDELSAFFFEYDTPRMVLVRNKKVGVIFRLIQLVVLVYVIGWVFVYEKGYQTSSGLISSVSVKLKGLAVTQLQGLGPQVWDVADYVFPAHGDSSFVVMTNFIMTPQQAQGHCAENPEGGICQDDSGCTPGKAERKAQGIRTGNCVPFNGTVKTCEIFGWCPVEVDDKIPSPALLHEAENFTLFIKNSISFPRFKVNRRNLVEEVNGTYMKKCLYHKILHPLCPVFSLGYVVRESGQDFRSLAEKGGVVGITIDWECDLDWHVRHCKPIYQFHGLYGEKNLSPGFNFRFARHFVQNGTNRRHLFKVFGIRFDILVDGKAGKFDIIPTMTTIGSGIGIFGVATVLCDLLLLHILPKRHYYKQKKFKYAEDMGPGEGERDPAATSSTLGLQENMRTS
Procedure: as §1

P2X2R = molecular target: T5, P2X2R (Rattus norvegicus, UniProt P49653); experiment: ATP-induced [Ca2+]i shifts in PC12 cells; details: 1 μM
T5 construct: endogenous in cells; host or cells: PC12 cells
T5 sequence (P49653 1-472): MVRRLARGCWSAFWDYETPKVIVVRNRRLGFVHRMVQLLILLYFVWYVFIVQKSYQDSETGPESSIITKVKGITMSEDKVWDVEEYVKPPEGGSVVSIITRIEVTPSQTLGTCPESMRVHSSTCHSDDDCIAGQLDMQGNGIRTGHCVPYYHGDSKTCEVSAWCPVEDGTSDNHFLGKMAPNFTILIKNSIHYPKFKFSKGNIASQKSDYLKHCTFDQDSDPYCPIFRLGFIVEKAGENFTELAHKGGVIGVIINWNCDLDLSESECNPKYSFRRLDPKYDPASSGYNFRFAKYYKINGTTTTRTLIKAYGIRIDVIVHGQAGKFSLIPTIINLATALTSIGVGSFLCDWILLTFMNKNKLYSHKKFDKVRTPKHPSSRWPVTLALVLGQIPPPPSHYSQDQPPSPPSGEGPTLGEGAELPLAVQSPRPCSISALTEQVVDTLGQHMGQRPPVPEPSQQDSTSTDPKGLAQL
Procedure: as §1

P2Y14R = molecular target: T6, P2Y14R (Mus musculus, UniProt Q9ESG6); experiment: UDP-glucose-activated [Ca2+]i shifts in mouse peritoneal macrophages; details: 1 μM
T6 construct: endogenous in cells; host or cells: mouse peritoneal macrophages
T6 sequence (Q9ESG6 1-338): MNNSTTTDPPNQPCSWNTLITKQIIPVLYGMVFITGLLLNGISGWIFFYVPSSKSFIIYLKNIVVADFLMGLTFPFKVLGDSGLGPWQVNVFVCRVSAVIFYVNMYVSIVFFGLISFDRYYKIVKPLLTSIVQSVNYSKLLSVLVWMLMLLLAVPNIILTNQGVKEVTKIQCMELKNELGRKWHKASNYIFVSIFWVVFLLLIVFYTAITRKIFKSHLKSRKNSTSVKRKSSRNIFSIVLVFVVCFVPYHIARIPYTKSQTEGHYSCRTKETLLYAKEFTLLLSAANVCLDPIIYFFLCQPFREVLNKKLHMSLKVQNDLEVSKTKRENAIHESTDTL
Procedure: as §1

P2X3R = experiment: α,β-meATP-induced [Ca2+]i shift; details: 10 μM
Procedure: as §1

T3 sequence (P49650 whole entry): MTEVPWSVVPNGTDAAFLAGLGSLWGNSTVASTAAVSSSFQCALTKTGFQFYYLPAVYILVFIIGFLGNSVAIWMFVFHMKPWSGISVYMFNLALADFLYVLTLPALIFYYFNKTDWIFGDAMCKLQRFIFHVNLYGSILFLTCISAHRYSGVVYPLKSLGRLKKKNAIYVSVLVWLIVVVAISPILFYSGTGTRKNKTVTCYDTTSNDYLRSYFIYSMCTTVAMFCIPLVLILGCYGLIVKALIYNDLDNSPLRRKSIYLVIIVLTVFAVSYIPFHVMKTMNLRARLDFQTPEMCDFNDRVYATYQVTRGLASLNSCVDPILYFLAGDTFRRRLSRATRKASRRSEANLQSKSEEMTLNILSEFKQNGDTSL
T1 sequence (P35383 whole entry): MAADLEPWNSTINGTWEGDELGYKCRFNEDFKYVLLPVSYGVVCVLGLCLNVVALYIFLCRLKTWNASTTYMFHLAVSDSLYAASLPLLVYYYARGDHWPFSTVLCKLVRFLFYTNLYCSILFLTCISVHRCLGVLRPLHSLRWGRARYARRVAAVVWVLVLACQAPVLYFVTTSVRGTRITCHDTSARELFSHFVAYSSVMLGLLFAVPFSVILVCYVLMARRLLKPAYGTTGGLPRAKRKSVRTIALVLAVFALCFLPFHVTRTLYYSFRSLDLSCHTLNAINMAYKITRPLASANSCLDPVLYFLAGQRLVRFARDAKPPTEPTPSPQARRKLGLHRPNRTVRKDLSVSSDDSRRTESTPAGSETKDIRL

Cc1ccc2c(c1)C=Cc1cc(C)ccc1C2c1cn(Cc2ccc(C(=O)Nc3nn[nH]n3)o2)c(=O)[nH]c1=S [AR-C 118925XX]
Effect on 2-S-UTP-activated [Ca2+]i shifts (P2Y2R): inhibited

O=C1CN=C(c2cccc(Br)c2)c2oc3ccccc3c2N1 [Compound 5BDBD]
Effect on ATP-induced [Ca2+]i shifts potentiated by 1 μM ivermectin (P2X4R): inhibited

CNc1ncnc2c1ncn2[C@H]1C[C@H](OP(=O)(O)O)[C@@H](COP(=O)(O)O)O1 [MRS 2179]
Effect on ADP-induced [Ca2+]i shifts (P2Y1R): inhibited

O=C(Nc1cccc(C(=O)Nc2ccc(S(=O)(=O)O)c3cc(S(=O)(=O)O)cc(S(=O)(=O)O)c23)c1)Nc1cccc(C(=O)Nc2ccc(S(=O)(=O)O)c3cc(S(=O)(=O)O)cc(S(=O)(=O)O)c23)c1 [NF023, reference compound]
Effect on β,γ-meATP-induced intracellular Ca2+ mobilization (P2X1R): inhibited

COc1cc(S(=O)(=O)O)cc2cc(S(=O)(=O)O)c(NC(=O)c3ccc(C)c(NC(=O)c4cccc(NC(=O)Nc5cccc(C(=O)Nc6cc(C(=O)Nc7cc8c(OC)cc(S(=O)(=O)O)cc8cc7S(=O)(=O)O)ccc6C)c5)c4)c3)cc12 [NF770]
Effect on ATP-induced [Ca2+]i shifts (P2X2R): inhibited

O=C(O)c1cc(-c2ccc(C3CCNCC3)cc2)c2ccc(-c3ccc(C(F)(F)F)cc3)cc2c1 [PPNT]
Effect on UDP-glucose-activated [Ca2+]i shifts (P2Y14R): inhibited

Nc1ncnc2c1ncn2[C@@H]1O[C@H](COP(=O)(O)OP(=O)(O)OP(=O)(O)O)[C@H]2OC3(O[C@H]21)C([N+](=O)[O-])=CC(=[N+]([O-])[O-])C=C3[N+](=O)[O-] (stereo partly shown) [TNP-ATP, reference compound]
Effect on activity of P2X3R agonist α,β-meATP (P2X3R): inhibited
